Source: patent publication US20250188041A1, “NEW COMPOUNDS AND TREATMENT OF RENAL CELL CARCINOMA” (Trustlife Global Inc., priority 2022, published 2025)
“Also recorded” adds a separate entry of the source.

Columns and labels:
Assay type in all cases: cell-based, Human
BUB1B = test: Western blot, BUB1B expression in Caki-1 treated with TG-101209 alternatives; conditions: Caki-1, 5 μM of target drug, 1 day (FIG. 41; method says 2 days)
Experimental: (§1) Cell culture 2: Caki-1 was purchased from CLS Cell Lines Service (Germany). The cells were maintained in McCoy's SA (modified) medium (16600082, Thermo Fisher Scientific, USA) and supplemented with 10% fetal bovine serum (FBS, F7524, Sigma-Aldrich), 1% Penicillin/Streptomycin (P4333, Sigma-Aldrich).
The target drugs developed as alternatives to TG-101209, were dissolved in 0.1% DMSO (41639, Sigma-Aldrich). Caki-1 cells from cell culture 2 were seeded in a 6-well plate at 3×10^5 cells per well. […]
The cells were washed with PBS solution and then lysed with CelLytic M (C2978, Sigma-Aldrich) lysis buffer containing protease inhibitors (11836170001, Roche). The cell lysates were centrifuged at 12 000 rpm for 10 min and supernatants were collected. Protein Assay Dye Reagent (5000006, Bio-Rad) was used for the determination of protein concentration. The absorbance of the proteins was measured spectrophotometrically at 595 nm by a microplate reader (Hidex Sense Beta Plus). Protein electrophoresis was performed using Mini-PROTEAN® TGX™ Precast Gels (4561086, Bio-Rad) and then the separated proteins were transferred to a Trans-Blot Turbo Mini 0.2 um PVDF Transfer Packs membrane (1704158, Bio-Rad) by using Trans-Blot® Turbo™ Transfer System (Bio-Rad). The membrane was blocked with 5% skim milk for 30 min at 4° C. with gentle rocking. After blocking, the membrane was treated with primary antibodies: Anti-BUB1B (HPA008419, Human Protein Atlas, Sweden) and Anti-Beta actin (ab8227, Abcam) as a loading control overnight at 4° C. on a rocking platform. After the treatment of primary antibodies, the membrane was washed three times with TBS-T buffer (A09-7500-100, Medicago). Then, Goat anti-Rabbit IgG-HRP (ab205718, Abcam) was treated as the secondary antibody for 30 min at 4° C. with gentle rocking.

Caki-1 cells [1] = test: MTT cell viability assay of Caki-1 treated with TG-101209 and its alternatives; conditions: for IC50: Homo sapiens, FIG. 43, assay not named, presumably Caki-1 cell viability; for cell viability (MTT assay) / Ranking, Cell viability (%): 1 day; for Ranking, Cell viability (%): top five target drugs, MTT assay, 10 μM, rank 1 = greatest reduction
Experimental: as §1
The cytotoxic effects of the TG-101209 and its alternatives on the Caki-1 cells were tested by MTT (Thiazolyl Blue Tetrazolium Bromide) method. 1.5×10^4 cells were seeded per well in a 96-well plate in 100 μL growth media. […] After the incubation period, 5 mg/ml MTT (M2128, Sigma-Aldrich) solution in PBS (10 μL) was added to each well. After 1 hour, the MTT solution and all media were removed from the wells. 100 μl of DMSO was added and mixed to dissolve the formazan crystals. Cell viability was analysed by measuring the absorbance of the dissolved formazan at a wavelength of 570 nm with a microplate reader (Hidex Sense Beta Plus).

Caki-1 cells [2] = test: LDH cytotoxicity assay of Caki-1; conditions: 1 day; for cytotoxicity (LDH assay): Caki-1, 10 μM; for Ranking, Cytotoxicity (%): top five target drugs, LDH assay, 10 μM, rank 1 = highest cytotoxicity
Experimental: as §1
Lactate dehydrogenase (LDH) assay was performed with LDH Assay Kit (ab65393). 1.5×10^4 cells per well (from cell culture 2) were seeded in a 96-well plate and drugs were treated at 10 μM for 1 day with 200 μl media. 20 μl of media was analysed with LDH Assay Kit as per manufacturer's instruction.

Row | Structure (SMILES) | expression levels of BUB1B (BUB1B) | IC50 (Caki-1 cells [1]) [µM] | cell viability (MTT assay) (Caki-1 cells [1]; Caki-1, 5 μM) | cell viability (MTT assay) (Caki-1 cells [1]; Caki-1, 10 μM) | Ranking, Cell viability (%) (Caki-1 cells [1]) | cytotoxicity (LDH assay) (Caki-1 cells [2]) | Ranking, Cytotoxicity (%) (Caki-1 cells [2]) | cell viability (MTT assay) (Caki-1 cells [1]; Caki-1, 10 μM, listed as MS)
1 | Cc1cnc(Nc2ccc(N3CCN(C)CC3)cc2)nc1Nc1cccc(S(=O)(=O)N2CCOCC2)c1 [M7, 5-methyl-N2-(4-(4-methylpiperazin-1-yl)phenyl)-N4-(3-(morpholinosulfonyl)phenyl)pyrimidine-2,4-diamine] | significantly lower the expression levels of BUB1B | > 3 |  |  |  |  |  | 
2 | Cc1cnc(Nc2ccc(OCCCN3CCOCC3)cc2)nc1Nc1cccc(S(=O)(=O)NC(C)(C)C)c1 [M103, N-(tert-butyl)-3-((5-methyl-2-((4-(3-morpholinopropoxy)phenyl)amino)pyrimidin-4-yl)amino)benzenesulfonamide] |  | ~3 |  |  |  |  |  | 
3 | COc1cc(NC(=O)c2ccc(Nc3ncc(C)c(Nc4cccc(S(=O)(=O)NC(C)(C)C)c4)n3)cc2)cc(OC)c1 [M101A, 4-((4-((3-(N-(tert-butyl)sulfamoyl)phenyl)amino)-5-methylpyrimidin-2-yl)amino)-N-(3,5-dimethoxyphenyl)benzamide] |  |  | greatest | most profound effect on the cell viability | 4 | exhibited cytotoxicity | 5 | 
4 | Cc1cn(-c2cc(Nc3ncc(C)c(Nc4cccc(S(=O)(=O)NC(C)(C)C)c4)n3)cc(C(F)(F)F)c2)cn1 [M64, N-(tert-butyl)-3-((5-methyl-2-((3-(4-methyl-1H-imidazol-1-yl)-5-(trifluoromethyl)phenyl)amino)pyrimidin-4-yl)amino)benzenesulfonamide] | significantly lower the expression levels of BUB1B | > 3 |  |  |  |  |  | 
5 | Cc1cnc(Nc2ccc(C(=O)Nc3cccc(S(=O)(=O)N4CCOCC4)c3)cc2)nc1Nc1cccc(S(=O)(=O)NC(C)(C)C)c1 [M101F, 4-((4-((3-(N-(tert-butyl)sulfamoyl)phenyl)amino)-5-methylpyrimidin-2-yl)amino)-N-(3-(morpholinosulfonyl)phenyl)benzamide] |  |  | greatest |  |  | exhibited cytotoxicity |  | 
6 | Cc1ccc(Nc2ncc(C)c(Nc3cccc(S(=O)(=O)NC(C)(C)C)c3)n2)cc1S(N)(=O)=O [M66, N-(tert-butyl)-3-((5-methyl-2-((4-methyl-3-sulfamoylphenyl)amino)pyrimidin-4-yl)amino)benzenesulfonamide] | significantly lower the expression levels of BUB1B |  | greatest | most profound effect on the cell viability | 3 | exhibited cytotoxicity | 4 | 
7 | Cc1cnc(Nc2ccc(N3CCN(C)CC3)cc2)nc1Nc1cccc(S(=O)(=O)NC2CCC2)c1 [M5, N-cyclobutyl-3-((5-methyl-2-((4-(4-methylpiperazin-1-yl)phenyl)amino)pyrimidin-4-yl)amino)benzenesulfonamide] | significantly lower the expression levels of BUB1B | ~3 | greatest | greatest reduction of cell viability; also recorded: greatest reduction in cell viability | 1 | exhibited cytotoxicity; also recorded: highest cytotoxicity; also recorded: greatest cytotoxicity | 2 | most profound effect on the cell viability
8 | Cc1cnc(Nc2ccc(C(=O)Nc3ccc(OCCCN4CCOCC4)cc3)cc2)nc1Nc1cccc(S(=O)(=O)NC(C)(C)C)c1 [M101G, 4-((4-((3-(N-(tert-butyl)sulfamoyl)phenyl)amino)-5-methylpyrimidin-2-yl)amino)-N-(4-(3-morpholinopropoxy)phenyl)benzamide] |  |  | greatest |  |  |  |  | 
9 | Cc1cnc(Nc2ccc(C(=O)Nc3ccc4ncccc4c3)cc2)nc1Nc1cccc(S(=O)(=O)NC(C)(C)C)c1 [M101H, 4-((4-((3-(N-(tert-butyl)sulfamoyl)phenyl)amino)-5-methylpyrimidin-2-yl)amino)-N-(quinolin-6-yl)benzamide] |  |  | greatest |  |  |  |  | 
10 | Cc1cnc(Nc2ccc(C(=O)Nc3cccc(Br)c3)cc2)nc1Nc1cccc(S(=O)(=O)NC(C)(C)C)c1 [M101B, N-(3-bromophenyl)-4-((4-((3-(N-(tert-butyl)sulfamoyl)phenyl)amino)-5-methylpyrimidin-2-yl)amino)benzamide] |  |  | greatest |  |  | exhibited cytotoxicity | 3 | 
11 | Cc1cnc(Nc2ccc(C(=O)Nc3cccc(S(=O)(=O)NC(C)(C)C)c3)cc2)nc1Nc1cccc(S(=O)(=O)NC(C)(C)C)c1 [M101D, N-(3-(N-(tert-butyl)sulfamoyl)phenyl)-4-((4-((3-(N-(tert-butyl)sulfamoyl)phenyl)amino)-5-methylpyrimidin-2-yl)amino)benzamide] |  |  | greatest | most profound effect on the cell viability; also recorded: greatest reduction of cell viability; also recorded: greatest reduction in cell viability | 2 | exhibited cytotoxicity; also recorded: highest cytotoxicity; also recorded: greatest cytotoxicity | 1 | 
12 | Cc1cnc(Nc2ccc(N3CCN(C)CC3)cc2)nc1Nc1cccc(S(=O)(=O)Nc2ccccc2)c1 [M3, 3-((5-methyl-2-((4-(4-methylpiperazin-1-yl)phenyl)amino)pyrimidin-4-yl)amino)-N-phenylbenzenesulfonamide] | significantly lower the expression levels of BUB1B | ~3 |  |  |  |  |  | 
13 | COc1cc(Nc2ncc(C)c(Nc3cccc(S(=O)(=O)NC(C)(C)C)c3)n2)cc(OC)c1 [M79, N-(tert-butyl)-3-((2-((3,5-dimethoxyphenyl)amino)-5-methylpyrimidin-4-yl)amino)benzenesulfonamide] | significantly lower the expression levels of BUB1B | ~3 |  |  |  |  |  | 
